Here are results for ten molecules from US6326516A, “Acetylenic β-sulfonamido and phosphinic acid amide hydroxamic acid TACE inhibitors” (American Cyanamid Company, priority 2000, dated 2001).

The structures appear in SMILES notation. pIC50: −log10 of the molar value. Where two headings read alike, the source gives them in different places.

One test addresses T1, MMP-1 (Homo sapiens, UniProt P03956).
T1 sequence (P03956 100-469): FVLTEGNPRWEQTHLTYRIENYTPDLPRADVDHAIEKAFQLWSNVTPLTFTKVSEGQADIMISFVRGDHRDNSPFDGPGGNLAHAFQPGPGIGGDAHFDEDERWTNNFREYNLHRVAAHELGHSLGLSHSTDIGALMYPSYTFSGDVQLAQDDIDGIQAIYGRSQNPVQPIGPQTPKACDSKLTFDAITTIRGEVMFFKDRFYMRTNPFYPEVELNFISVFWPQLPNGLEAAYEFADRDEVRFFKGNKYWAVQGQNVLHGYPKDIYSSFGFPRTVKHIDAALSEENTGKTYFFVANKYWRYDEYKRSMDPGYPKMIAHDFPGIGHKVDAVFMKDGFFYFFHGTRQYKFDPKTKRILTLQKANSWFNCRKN
Nature of the test: MMP-1 inhibition (thiopeptide or fluorescent peptide substrate). The test is classed as biochemical. The settings on record: for IC50: bounds given in uM. The procedure:
(§1) The enzyme activity is measured by the rate of the color increase. The thiopeptide substrate is made up fresh as a 20 mM stock in 100% DMSO and the DTNB is dissolved in 100% DMSO as a 100 mM stock and stored in the dark at room temperature. Both the substrate and DTNB are diluted together to 1 mM with substrate buffer (50 mM HEPES pH 7.5, 5 mM CaCl2) before use. The stock of enzyme is diluted with buffer (50 mM HEPES, pH 7.5, 5 mM CaCl2, 0.02% Brij) to the desired final concentration. The buffer, enzyme, vehicle or inhibitor, and DTNB/substrate are added in this order to a 96 well plate (total reaction volume of 200 μl) and the increase in color is monitored spectrophotometrically for 5 minutes at 405 nm on a plate reader and the increase in color over time is plotted as a linear line.
(§2) Alternatively, a fluorescent peptide substrate is used. In this test procedure, the peptide substrate contains a fluorescent group and a quenching group. Upon cleavage of the substrate by an MMP, the fluorescence that is generated is quantitated on the fluorescence plate reader. The assay is run in HCBC assay buffer (50 mM HEPES, pH 7.0, 5 mM Ca^+2, 0.02% Brij, 0.5% Cysteine), with human recombinant MMP-1, MMP-9, or MMP-13. The substrate is dissolved in methanol and stored frozen in 1 mM aliquots. For the assay, substrate and enzymes are diluted in HCBC buffer to the desired concentrations. Compounds are added to the 96 well plate containing enzyme and the reaction is started by the addition of substrate. The reaction is read (excitation 340 nm, emission 444 nm) for 10 min. and the increase in fluorescence over time is plotted as a linear line.
(§3) For either the thiopeptide or fluorescent peptide test procedures, the slope of the line is calculated and represents the reaction rate. The linearity of the reaction rate is confirmed (r^2 >0.85). The mean (x±sem) of the control rate is calculated and compared for statistical significance (p<0.05) with drug-treated rates using Dunnett's multiple comparison test. Dose-response relationships can be generated using multiple doses of drug and IC50 values with 95% CI are estimated using linear regression.

The next test deals with THP-1 cells. Briefly: Human Monocytic THP-1 Cell Differentiation Assay for Soluble Proteins (THP-1 Soluble Protein Assay). The test is classed as cell-based. How it is done: THP-1 cells (from ATCC) are a human monocytic cell line which were obtained from the peripheral blood of a person with acute monocytic leukemia. They can be grown in culture and differentiated into macrophage like cells by stimulation with mitogens.
For the assay, THP-1 cells are seeded from an ATCC stock which was previously grown and frozen back at 5×10^6/ml/vial. One vial is seeded into a T25-flask with 16 mls of RPMI-1640 with glutamax (Gibco) media containing 10% fetal bovine serum, 100 units/ml penicillin, 100 μg/ml streptomycin, and 5×10^-5 M 2-mercapto-ethanol (THP-1 media). Each vial of cells are cultured for about two weeks prior to being used for an assay and then are used for only 4 to 6 weeks to screen compounds. Cells are subcultured on Mondays and Thursdays to a concentration of 1×10^5/ml.
To perform an assay, the THP-1 cells are co-incubated in a 24 well plate with […] of a 24 mg/ml stock of Lipopolysacharide (LPS) (Calbiochem Lot# B13189) at 37° C. in 5% CO2 at a concentration of 1.091×10^6 cells/ml (1.1 ml/well) for a total of 24 hours. At the same time, […] of drug, vehicle or THP-1 media is plated in appropriate wells to give a final volume of 1.2 ml/well. Standard and test compounds are dissolved in DMSO at a concentration of 36 mM and diluted from here to the appropriate concentrations in THP-1 media and added to the wells at the beginning of the incubation period to give final concentrations of […], 300 nM, and 100 nM. Cell exposure to DMSO was limited to 0.1% final concentration. Positive control wells were included in the experiment which had mitogen added but no drug. Vehicle control wells were included as well, which were identical to the positive control wells, except that DMSO was added to give a final concentration of 0.083%. Negative control wells were included in the experiment which had vehicle but no mitogen or drug added to the cells. Compounds can be evaluated for their effect on basal (non-stimulated) shedding of the receptors by replacing the LPS with […] of THP-1 media. Plates are placed into an incubator set at 5% CO2 and at 37° C. After 4 hours of incubation, […] of tissue culture supernatant (TCS) is removed for use in an TNF-α ELISA. Following 24 hours of incubation, […] of TCS is removed and used for analysis in TNF-R p75/80, TNF-R p55/60 and IL-8 ELISAs.
In addition, at the 24 hours timepoint, and the cells for each treatment group are collected by resuspension in 500 μl/well of THP-1 media and transferred into a FACS tube. Two ml/tube of a 0.5 mg/ml stock of propidium iodide (PI) (Boerhinger Mannheim cat. # 1348639) is added. The samples are run on a Becton Dickinson FaxCaliber FLOW cytometry machine and the amount of dye taken up by each cell is measured in the high red wavelength (FL3). Only cells with compromised membranes (dead or dying) can take up PI. The percent of live cells is calculated by the number of cells not stained with PI, divided by the total number of cells in the sample. The viability values calculated for the drug treated groups were compared to the viability value calculated for the vehicle treated mitogen stimulated group ("vehicle positive control") to determine the "percent change from control". This "percent change from control" value is an indicator of drug toxicity.
The quantity of soluble TNF-α, TNF-R p75/80 and TNF-R p55/60 and IL-8 in the TCS of the THP-1 cell cultures are obtained with commercially available ELISAs from R&D Systems, by extrapolation from a standard curve generated with kit standards. The number of cells that either take up or exclude PI are measured by the FLOW cytometry machine and visualized by histograms using commercially available Cytologic software for each treatment group including all controls. […]

For a further test, the target named is MMP-9 (Homo sapiens, UniProt P14780). Briefly: MMP-9 inhibition (thiopeptide or fluorescent peptide substrate). The following applies: for IC50: bounds given in uM. Format: biochemical. The procedure: as §1, §2, §3
Sequence of MMP-9 (P14780 94-707): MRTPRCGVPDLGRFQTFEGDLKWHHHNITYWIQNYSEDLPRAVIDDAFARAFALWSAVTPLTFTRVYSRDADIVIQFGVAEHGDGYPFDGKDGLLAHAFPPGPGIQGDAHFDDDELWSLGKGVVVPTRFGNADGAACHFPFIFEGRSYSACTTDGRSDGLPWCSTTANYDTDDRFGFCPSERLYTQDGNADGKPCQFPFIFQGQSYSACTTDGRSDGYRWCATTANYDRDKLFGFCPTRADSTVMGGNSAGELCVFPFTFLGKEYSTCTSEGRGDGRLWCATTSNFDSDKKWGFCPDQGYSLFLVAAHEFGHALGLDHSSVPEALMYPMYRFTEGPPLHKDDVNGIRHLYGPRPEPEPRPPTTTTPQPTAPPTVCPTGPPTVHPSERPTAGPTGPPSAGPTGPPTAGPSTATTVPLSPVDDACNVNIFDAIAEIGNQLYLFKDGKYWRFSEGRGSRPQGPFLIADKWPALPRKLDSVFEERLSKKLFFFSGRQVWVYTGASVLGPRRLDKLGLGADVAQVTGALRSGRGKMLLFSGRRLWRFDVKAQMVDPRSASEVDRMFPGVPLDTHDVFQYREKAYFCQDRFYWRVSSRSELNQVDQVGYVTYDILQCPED
The next test addresses MMP-13 (Homo sapiens, UniProt P45452). Nature of the test: MMP-13 inhibition (thiopeptide or fluorescent peptide substrate). Format: biochemical. The following applies: for IC50: bounds given in uM. The procedure: as §1, §2, §3
For test [1], the target named is TNF-α converting enzyme (TACE) (Homo sapiens, UniProt P78536). Nature of the test: TACE inhibition (fluorescent peptidyl substrate). Format: biochemical. How it is done: Using 96-well black microtiter plates, each well receives a solution composed of 10 μL TACE (fmal concentration 1 μg/mL), 70 μL Tris buffer, pH 7.4 containing 10% glycerol (final concentration 10 mM), and 10 μL of test compound solution in DMSO (final concentration 1 μM, DMSO concentration <1%) and incubated for 10 minutes at room temperature. The reaction is initiated by addition of a fluorescent peptidyl substrate (final concentration 100 μM) to each well and then shaking on a shaker for 5 sec.
Sequence of TNF-α converting enzyme (TACE) (P78536 215-824): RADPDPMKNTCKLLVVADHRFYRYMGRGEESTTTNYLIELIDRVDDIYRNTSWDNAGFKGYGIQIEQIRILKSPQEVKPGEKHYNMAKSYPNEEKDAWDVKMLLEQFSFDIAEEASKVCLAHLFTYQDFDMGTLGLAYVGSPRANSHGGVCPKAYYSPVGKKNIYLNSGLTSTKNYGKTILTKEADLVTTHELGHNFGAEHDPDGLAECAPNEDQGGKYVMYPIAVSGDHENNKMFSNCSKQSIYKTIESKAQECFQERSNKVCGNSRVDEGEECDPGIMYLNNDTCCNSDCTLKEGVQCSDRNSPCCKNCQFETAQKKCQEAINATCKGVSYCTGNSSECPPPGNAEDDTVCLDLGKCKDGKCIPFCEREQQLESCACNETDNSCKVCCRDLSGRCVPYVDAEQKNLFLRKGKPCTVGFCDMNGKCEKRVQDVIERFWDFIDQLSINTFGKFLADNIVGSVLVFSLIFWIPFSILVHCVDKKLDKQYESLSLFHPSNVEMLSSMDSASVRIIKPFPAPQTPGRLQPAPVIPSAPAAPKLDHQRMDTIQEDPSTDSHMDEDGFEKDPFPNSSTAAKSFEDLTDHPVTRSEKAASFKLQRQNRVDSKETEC
The reaction is read (excitation 340 nm, emission 420 nm) for 10 min. and the increase in fluorescence over time is plotted as a linear line. The slope of the line is calculated and represents the reaction rate.
The linearity of the reaction rate is confirmed (r^2 >0.85). The mean (x±sem) of the control rate is calculated and compared for statistical significance (p<0.05) with drug-treated rates using Dunnett's multiple comparison test. Dose-response relationships can be generate using multiple doses of drug and IC50 values with 95% CI are estimated using linear regression.

On to `CC#CCOc1ccc(S(=O)(=O)N[C@H]2CCCC[C@H]2C(=O)NO)cc1` (relative stereo) [Example 32, (Cis)-2-[{[4-(2-butynyloxy)phenyl]sulfonyl}amino)-N-hydroxycyclohexanecarboxamide], for which the values for the half-inhibitory concentration (IC50) against MMP-1 and against MMP-9 were greater than 10 µM and roughly 10 µM, respectively. The inhibition at 3 µM in the test with THP-1 cells is 29%. Moreover, the pIC50 against MMP-13 was 5.76; in test [1], 7.44.
Consider `CC#CCOc1ccc(S(=O)(=O)N(C)[C@H]2CCCC[C@H]2C(=O)NO)cc1` (relative stereo) [Example 36, (Cis)-2-[{[4-(2-butynyloxy)phenyl]sulfonyl}(methyl)amino]-N-hydroxycyclohexanecarboxamide], for which the pIC50 against MMP-1 is 5.37; at MMP-9, 5.88; against MMP-13, 5.74; in test [1], 7.28. Besides, in the test with THP-1 cells, the inhibition at 3 µM came to 23%.
Turning to `CC#CCOc1ccc(S(=O)(=O)N(C)[C@@H]2CCCC[C@H]2C(=O)NO)cc1` [Example 17, (1R,2R)-2-[{[4-(2-Butynyloxy)phenyl]sulfonyl}(methyl)amino]-N-hydroxycyclohexanecarboxamide], the half-inhibitory concentration (IC50) against MMP-1, against MMP-9 and against MMP-13 was greater than 10 µM throughout. This molecule also showed an inhibition at 3 µM in the test on THP-1 cells of 14%. The molecule also had a pIC50 in test [1] of 7.55.
For `CC#CCOc1ccc(S(=O)(=O)N[C@@H]2CCCC[C@H]2C(=O)NO)cc1` [Example 18, (1R,2R)-2-({[4-(2-Butynyloxy)phenyl]sulfonyl}amino)-N-hydroxycyclohexanecarboxamide], the IC50 at MMP-1, against MMP-9 and against MMP-13 was greater than 10 µM throughout. The molecule also registered an inhibition at 3 µM with THP-1 cells of 1%. For the same molecule, the pIC50 in test [1] was 7.21.
In turn, `CC#CCOc1ccc(S(=O)(=O)NCCC(=O)NO)cc1` [Example 21, 3-({[4-(2-Butynyloxy)phenyl]sulfonyl}amino)-N-hydroxypropanamide] showed an inhibition at 3 µM in the test on THP-1 cells of 0%. In test [1], this molecule gave a pIC50 of 6.84.
In the case of `CC#CCOc1ccc(S(=O)(=O)N(C)CCC(=O)NO)cc1` [Example 24, 3-({[4-(2-Butynyloxy)phenyl]sulfonyl}(methyl)amino)-N-hydroxypropanamide], 3 µM produced 9% inhibition in the test on THP-1 cells. The molecule further showed a pIC50 in test [1] of 7.14.
Regarding `CC#CCOc1ccc(S(=O)(=O)N[C@H]2CCC[C@H]2C(=O)NO)cc1` [Example 26], the IC50 against MMP-1 was greater than 1 µM. Also, the inhibition at 3 µM with THP-1 cells is 23%. For the same molecule, the pIC50 against MMP-9 was 5.30; on MMP-13, 6.17; in test [1], 7.82.
On to `CC#CCOc1ccc(S(=O)(=O)N(C)[C@H]2CCC[C@H]2C(=O)NO)cc1` [Example 30, (1R,2S)-2-[{[4-(2-Butynyloxy)phenyl]sulfonyl}(methyl)amino]N-hydroxycyclopentanecarboxamide], for which the pIC50 is 5.56 against MMP-1, 6.42 against MMP-9, 6.51 against MMP-13 and 7.85 in test [1]. At 3 µM the inhibition with THP-1 cells was 65%.
With `CC#CCOc1ccc(S(=O)(=O)NC2C3CCC(C3)C2C(=O)NO)cc1` [Example 38, (1R,2R,3S,4R)-(Cis)-3-({[4-(2-butynyloxy)phenyl]sulfonyl}amino)-N-hydroxybicyclo[2.2.1]heptane-2-carboxamide], the figures for the IC50 at MMP-1, against MMP-9 and on MMP-13 were greater than 10 µM, greater than 10 µM and roughly 10 µM, respectively. For the same molecule, in the test with THP-1 cells, testing at 3 µM gave an inhibition of 9%. Also, in test [1], the pIC50 was 7.52.
As to `CC#CCOc1ccc(S(=O)(=O)N(C)C2C3CCC(C3)C2C(=O)NO)cc1` [Example 42, (1R,2R,3S,4R)-(Cis)-3-({[4-(2-butynyloxy)phenyl]sulfonyl}(methyl)amino)-N-hydroxybicyclo[2.2.1]heptane-2-carboxamide], the half-inhibitory concentration (IC50) at MMP-1 is roughly 10 µM. Also, in the test with THP-1 cells, the inhibition at 3 µM was determined as 77%. Besides, the pIC50 is 5.94 on MMP-13 and 7.21 in test [1].
